In paper PMC9862026, “In Vivo Toxicity, Redox-Modulating Capacity and Intestinal Permeability of Novel Aroylhydrazone Derivatives as Anti-Tuberculosis Agents” (Pharmaceutics, 2022):

Experiments:
small intestine of mice = assay: Pathomorphological evaluation of small intestine; type: in vivo; conditions: 50 mg/kg oral, 14 days
Procedure: (§1) Tissues from the liver, kidney and small intestine of the mice from all groups were collected post-mortem and fixed in 10% buffered formalin for 48 h. fixed tissues were processed according to the classical paraffin method. The cutting of the paraffin blocks was performed using a paraffin rotary microtome Leica RM 2255 at a slice thickness of 5 µm. The sections were stained with hematoxylin and eosin (H&E). Histological changes were examined and imaged with a Leica DM2500 light microscope equipped with a Leica MC120HD digital camera and also with Euromex BioBlue (Belgium) digital camera

[1] = GIT PAMPA intestinal permeability (Double-Sink protocol); type: in vitro ADME
Procedure: The intestinal permeability of isoniazid and the newly synthesized derivatives was measured by PAMPA Permeability Analyzer (pION Inc., Billerica, MA, USA) following the Double-Sink™ Protocol. PAMPA assay kits were purchased from pION Inc. According to the protocol, the donor compartment of the “sandwich” is loaded with compound solutions adjusted to three different pH values of 5.0, 6.2, and 7.4. The acceptor wells are filled with an ASB of fixed pH 7.4, containing chemical scavengers that simulate the effect of serum proteins. In the central circulation, pH 7.4 is constantly maintained, and the blood flow, as well as the serum proteins, support the one-directional process of absorption. Reference spectra (ketoprofen, antipyrine, and ranitidine) were used to assess the transfer of compounds from the donor to the acceptor phase. The permeation ability was estimated based on permeability coefficient values Pe (10^−6 cm/s), presented in logarithmic terms (−logPe). Values of −logPe < 5 were accepted as indicative of highly permeable compounds. When −logPe acquired values between 5 and 6, compounds were considered as medium permeable, and if −logPe > 6–as low permeable. Experiments were performed in triplicate and permeation coefficients Pe (−logPe values, respectively) are calculated using PAMPA Explorer Command Software (Version 3.8).

[2] = system: GSH in the liver homogenate; assay: Total glutathione in liver homogenate; type: in vivo, mice; conditions: 50 mg/kg oral, 14 days
Procedure: (§2) Serum biochemical parameters were assessed as follows.
According to Rahman et al. total glutathione (tGSH) concentration was determined. In the reaction between GSH and 5,5′-dithiobis-2-nitrobenzoic acid (DTNB), the rate of formation of colored substance, 5′-thio-2-nitrobenzoic acid (TNB), is proportional to the concentration of tGSH in the sample. The maximal absorption of colored TNB is at 412 nm. The concentration of tGSH was calculated using oxidized glutathione as a reference standard and was expressed as ng/mg protein.

[3] = system: SOD in the liver supernatant; assay: SOD activity in liver supernatant; type: in vivo, mice; conditions: 50 mg/kg oral, 14 days
Procedure: as §2
SOD activity was measured by the method of Beauchamp and Fridovich. Superoxide anion radicals generated photochemically for 7 min, reduced nitro blue tetrazolium (NBT) obtaining insoluble formazan in violet color. The reduction of NBT inhibition in the presence of different enzyme concentrations was read at 560 nm vs. control of reaction mixture. The amount of enzyme performing 50% inhibition of NBT reduction is accepted as a unit of activity (U/mg protein).

[4] = system: MDA in the liver homogenate; assay: Endogenous MDA (spontaneous lipid peroxidation) in liver homogenate; conditions: 50 mg/kg oral, 14 days; vs controls
Procedure: On day 14, the animals were anesthetized with ketamine/ xylazine and decapitated. […] Livers were taken to assess oxidative stress and antioxidant status in the study groups.
For the in vivo experiments (spontaneous lipid peroxidation) the postnuclear homogenates of the liver (mg protein/mL) in 0.15 M KCl—10 mM potassium phosphate buffer, pH 7.2, were heated for 15 min at 100 °C in the presence of 40% TCA + 5N HCl + 2% thiobarbituric acid (2:1:2 v/v) for color developing. After cooling and centrifugation, the absorbance was read at 532 nm against dd H2O as blank. The values were expressed in nmoles malondialdehyde (MDA) per mg protein, with a molar extinction coefficient of 1.56 × 10^−5 M^−1cm^−1.

liver of mice = assay: Pathomorphological evaluation of liver; type: in vivo; conditions: 50 mg/kg oral, 14 days
Procedure: as §1

male Jcl:ICR mice [5] = assay: Sub-acute toxicity, 14 days oral: serum biochemical parameters; type: in vivo; conditions: 50 mg/kg oral
Procedure: (§3) The sub-acute toxicity effects were assessed after repeated (14 days) oral administration to male mice. […] The experiments were performed with male Jcl: ICR mice at the same age of 6 weeks and weighing approximately 30–35 g, in which the substances were administered daily for 14 days orally with a gastric tube at approximately the same time of the day. The compounds were solubilized with Tween 80 (0.1%) in distilled water and administered orally in a volume of 0.1 mL per 10.0 g. Animals were observed daily for behavioral changes and signs of toxicity. All results were compared with the positive control isoniazid (INH).
as §2

[6] = system: Glutathione peroxidase in the liver supernatant; assay: Glutathione peroxidase activity in liver supernatant; type: in vivo, mice; conditions: 50 mg/kg oral, 14 days
Procedure: as §2
The Glutathione Peroxidase Cellular Activity Assay Kit (Cat. No. CGP1) and Glutathione Reductase Assay Kit (Cat. No. GRSA) were used to measure the activities of glutathione-related enzymes.

kidney of mice = assay: Pathomorphological evaluation of kidney; type: in vivo; conditions: 50 mg/kg oral, 14 days
Procedure: as §1

male Jcl:ICR mice [7] = assay: Sub-acute toxicity, 14 days oral: complete blood count; type: in vivo; conditions: 50 mg/kg oral
Procedure: as §3, §2

DPPH assay = conditions: 0.1 mM DPPH in methanol, 30 min
Procedure: DPPH (2,2′-diphenyl-1-picrylhydrazyl radical) assay analysis of pure compounds was conducted by the method described by Brand-Williams et al.. First, 500 μL of the test solutions were added to 500 μL of a freshly prepared solution of 0.1 mM DPPH in methanol and incubated in the dark for 30 min. Then the absorbance at 517 nm (A517) was measured against a mixture of DPPH solution and methanol (1:1) as a control.
(§4) All data are presented as IC50, which gave 50% inhibition of the activities and compared against the activity of Trolox—a common antioxidant, at the same concentrations.

[8] = system: Fe^2+-asc.—induced lipid peroxidation in brain homogenate; assay: Fe-induced lipid peroxidation inhibition assay in vitro (TBARS); type: biochemical; conditions: model system of brain homogenate, 10 mM FeCl3 and 10 mM ascorbic acid
Procedure: Malondialdehyde as a marker of lipid peroxidation was determined by the formation of endogenous lipid peroxidation products, reacting with 2-thiobarbituric acid (TBARS), and detected spectrophotometrically (λmax = 532 nm) adapted by Mileva et al.. The method is based on the reaction of thiobarbituric acid (TBA) with the final products of lipids oxidation and formation of malondialdehyde (MDA). […] After that to the samples was added 0.6 mL a mixture of trichloroacetic acid (TCA)—TCA:HCl:TBA in 2:1:2 ratio and boiled in a water bath. After cooling and centrifugation at 3000 nrp the obtained color complex was read spectrophotometrically at A532 nm against the appropriate blank. The results were expressed in percentage inhibition of lipid peroxidation (received MDA per mg protein content from the control).
as §4

ABTS•+ assay = conditions: 15 min at 37 °C
Procedure: ABTS (2,2′-azino-bis (3-ethylbenzthiazoline-6-sulphonic acid) (7.0 mM) was mixed with potassium persulfate (2.45 mM) to obtain the cationic radical (ABTS•+) The solution was diluted in methanol (2 mL ABTS•+ + 58 mL methanol). The absorption at 743 nm of the resulting working solution was 1.1 ± 0.02 AU. Then, 1.425 mL of ABTS•+ working solution was added to 75 μL of the test drugs, and the absorption at 743 nm was measured after 15 min of incubation at 37 °C against methanol. A blank containing 75 μL of water instead of the test extract also was measured against methanol.
as §4

## NNC(=O)c1ccncc1 [INH, isoniazid, reference compound]
Small intestine of mice
  Pathomorphological findings in the small intestine: there were no defects in the epithelium, reaching and exceeding the muscular layer of the epithelium
  villous dullness score: 1
[1]; at the given experimental conditions (all tested pH), impermeable
  −logPe, GIT PAMPA: > 6
[1]; donor pH = 5.0, acceptor pH 7.4, Pe in 10^−6 cm/s
  −logPe, GIT PAMPA: 6.226
[1]; donor pH = 6.2, acceptor pH 7.4, Pe in 10^−6 cm/s
  −logPe, GIT PAMPA: 6.591
[1]; donor pH = 7.4, acceptor pH 7.4, Pe in 10^−6 cm/s
  −logPe, GIT PAMPA: 6.594
[2]
  level of total GSH in liver homogenate: decreased the level of total GSH
[2]; vs control levels
  glutathione deficiency: about 30%
[3]
  increase of the activity of SOD in liver: 25%
[4]
  increase of the level of MDA in liver homogenate: more than 35%
Liver of mice
  Lobular inflammatory process and hepatocyte loss: not reported
  signs related to initiated fibroblastic process (organ collagenization and fibrosis): No signs
Male Jcl:ICR mice [5]
  decrease of albumin compared to controls: 23%
  decrease of total protein compared to controls: 26%
  direct bilirubin higher than controls: 48%
  increase of ALAT compared to control animals: 67%
  increase of ASAT compared to control animals: 52%
  increase of creatinine compared to controls: 29%
  increase of urea compared to controls: 49%
  total bilirubin higher than controls: 40%
Male Jcl:ICR mice [5]; serum
  ALAT: 96.6 ± 3.1 U/L
  ALB: 21.6 ± 1.7 g/L
  ASAT: 126 ± 5.2 U/L
  CREAT: 126.6 ± 8.2 µmol/L
  D-Bil: 6.5 ± 0.44 µmol/L
  GLU: 6.4 ± 0.47 mmol/L
  T-Bil: 12.0 ± 0.38 µmol/L
  TP: 43.2 ± 3.1 g/L
  UA: 196 ± 20.7 µmol/L
  UREA: 13.6 ± 0.36 mmol/L
[6]
  increase of the activity of GPx compared to controls: 35%
Kidney of mice
  Pathomorphological findings in the kidney: the curved parts of the distal tubules have a lower upholstered epithelium, wide luminal segments, and preserved histological structure
Male Jcl:ICR mice [7]
  HCT: 33.3 ± 2.1 %
  Hgb: 112 ± 2.2 g/L
  PLT: 789 ± 183 10^9/L
  RBC: 5.35 ± 0.2 × 10^12/L
  WBC: 9.9 ± 0.54 × 10^9/L
  increase of leukocytes compared to controls: 70%
  reduction in hematocrit compared to the control group: 20%
  reduction in the level of erythrocytes compared to the control group: 28%
  reduction in the level of hemoglobin compared to the control group: 21%

## Cc1c(C)c2c(c(C)c1O)CCC(C)(C(=O)O)O2 (centres unmarked) [Trolox, 6-hydroxy-2,5,7,8-tetramethylchroman-2-carboxylic acid, reference compound]
DPPH assay
  DPPH Scavenging, IC50: 8.92 mg/mL
[8]
  Fe^2+-asc.—Induced LP in Liver, IC50: 18.2 mg/mL
ABTS•+ assay
  ABTS Scavenging, IC50: 24.8 mg/mL
